In patent publication US12404261B2, “Compounds and compositions for treating conditions associated with cGAS” (Novartis AG, priority 2020, dated 2025) one finds IC50 data, which are given here for 24 molecules.

The target in this assay is human truncated cGAS enzyme (147-522 human cGAS) (Homo sapiens (Human), UniProt Q8N884). Nature of the assay: Quantification of cGAS protein inhibition (cGAMP formation measured by LC-MS/MS). The class given is biochemical. Conditions: reported for the potential mixture of co-existing tautomers and/or racemates. Here is the method: A reagent buffer was prepared in filtered and autoclaved water according to the following: • 50 mM Tris-buffer pH 7.5 (1 M Tris-buffer pH 7.5, Invitrogen, Cat. No. 15567-027); • 50 mM NaCl (5 M NaCl, Sodium Chloride Solution, Sigma, 59222C-); • 5 mM MgCl2 (1 M MgCl2, Sigma, M1028); • 0.1 mM ZnCl2 (Zinc Chloride [7646-85-7], powder, Cell Culture Tested, Sigma, Z-0152); and • 0.001% Tween 20 (TWEEN 20, Sigma Aldrich, P1379-).
Sequence of human truncated cGAS enzyme (147-522 human cGAS) (Q8N884 147-522): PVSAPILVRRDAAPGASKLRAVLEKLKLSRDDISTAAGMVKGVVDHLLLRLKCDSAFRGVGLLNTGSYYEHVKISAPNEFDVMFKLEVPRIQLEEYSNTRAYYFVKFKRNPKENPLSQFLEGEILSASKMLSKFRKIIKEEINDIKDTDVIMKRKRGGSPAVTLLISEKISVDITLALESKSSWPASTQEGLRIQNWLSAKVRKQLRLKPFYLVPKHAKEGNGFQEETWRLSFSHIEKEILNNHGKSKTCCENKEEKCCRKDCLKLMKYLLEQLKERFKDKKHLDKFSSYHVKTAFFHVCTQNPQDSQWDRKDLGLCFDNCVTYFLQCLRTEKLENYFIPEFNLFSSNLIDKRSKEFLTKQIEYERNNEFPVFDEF
A buffer for the cGAS enzyme was prepared in filtered and autoclaved water according to the following: • 50 mM Tris-buffer pH 7.5; • 5 mM MgCl2; and • 0.001% Tween 20.
Compounds were dispensed to a […]. The human truncated cGAS enzyme (4.2 mg/mL 147-522 human cGAS, MW 43,909 g/mol) was stored in 50 mM Tris, 500 mM NaCl, 5% (v/v) glycerol at pH 8 and diluted in the cGAS buffer enzyme shortly before use. The enzyme solution was transferred into the reagent buffer to give a final concentration of 30 nM. The reaction was started by mixing the enzyme with ISD (a 45 bp double stranded DNA, MW 27,670 g/mol, 5 mM), GTP and ATP to a final concentration of 5 μM, 0.5 mM and 0.5 mM respectively in a final volume of 10 μl. The reaction plates were then centrifuged at 1000 rpm for 1 minute and incubated at room temperature for 1 h. After 1 h of incubation, [^5Ns]-2′3′-cGAMP to a final concentration of 200 nM and 30 μL of 100% acetonitrile/0.175% of TFA were added to the reaction mixture. The plates were centrifuged at 1000 rpm for 1 minute before being sealed for 3 seconds at 170° C. using a ThermoScientific sealer (ALPS™ 50V) and an aluminum sealing cover (Pierce Seal, 4titude, Product Code: 4TI-0531).
The concentration of cGAMP was measured on a LC-MS/MS system consisting of a THERMO Dionex Ultimate LC system with a high pressure pump, an autosampler, a column heating compartment (Reinach, Switzerland) and a SCIEX Triple Quad 5500 (Framingham, MA, USA) mass spectrometer for detection. The sample plates were centrifuged for 10 minutes at 2000 rpm. Up to three plates were placed in the autosampler for injection. An aliquot of 10 μL of each sample was injected on an XBridge BEH Amide 3.5 μm, 2.1×50 mm column (P/N 186004859) with an XBridge BEH Amide 5 μm 2.1×5 mm VanGuard Cartridge (P/N 186007760) pre-column (both WATERS, MA, USA) held at 40° C. An isocratic flow of 1.0 mL/min solvent (60% ACN, 8 mM ammonium acetate, 5 mM ammonium hydroxide, 0.04% acetic acid) was applied and sprayed into the ion source of the mass spectrometers. The MS parameters were optimized based on the properties of the compounds to be detected and run in positive multi-reaction mode (MRM) based on the mass transitions. LC and MS parameters were also optimized to allow for a sample-to-sample measuring time of approximately 75 sec and a run time of 8 hours per 384-well plate. All data were analyzed with Excel; and the dose response curves were generated using the auto fitting function of XLfit. The IC50 was determined by plotting the cGAMP concentration ratio (cGAMP divided by the internal standard [^15Ns]-2′3′-cGAMP) versus the concentration of compound.
As to `COCC(O)c1nnc(-c2c(-n3ccnc3)c3cc(OC)c(Cl)c(C#N)c3n2C)[nH]1` (stereo not drawn) [Example 53, 6-chloro-2-(5-(1-hydroxy-2-methoxyethyl)-4H-1,2,4-triazol-3-yl)-3-(1H-imidazol-1-yl)-5-methoxy-1-methyl-1H-indole-7-carbonitrile], the IC50 was determined as 66 nM.
Take `COCc1nnc(-c2c(-n3ccnc3)c3cc(OC)c(Cl)c(C#N)c3n2C)[nH]1` [Example 54, 6-chloro-3-(1H-imidazol-1-yl)-5-methoxy-2-(5-(methoxymethyl)-4H-1,2,4-triazol-3-yl)-1-methyl-1H-indole-7-carbonitrile]: the IC50 was found to be 76 nM.
With `COCC(F)(F)c1nnc(-c2c(-n3ccnc3)c3cc(OC)c(Cl)c(C#N)c3n2C)[nH]1` [Example 55, 6-chloro-2-(5-(1,1-difluoro-2-methoxyethyl)-4H-1,2,4-triazol-3-yl)-3-(1H-imidazol-1-yl)-5-methoxy-1-methyl-1H-indole-7-carbonitrile], the IC50 turned out to be 55 nM.
The same measure for `COc1cc2c(-n3ccnc3)c(-c3nnc(CS(C)(=O)=O)[nH]3)n(C)c2c(F)c1Cl` [Example 56, 6-Chloro-7-fluoro-3-(1H-imidazol-1-yl)-5-methoxy-1-methyl-2-(5-((methylsulfonyl)methyl)-4H-1,2,4-triazol-3-yl)-1H-indole]: 56 nM; for `COCC(=O)c1nnc(-c2[nH]c3c(F)c(Cl)c(OC)cc3c2-c2cn[nH]c2)[nH]1` [Example 57, 1-(5-(6-chloro-7-fluoro-5-methoxy-3-(1H-pyrazol-4-yl)-1H-indol-2-yl)-4H-1,2,4-triazol-3-yl)-2-methoxyethan-1-one]: 30 nM; for `COc1cc2c(-c3cn[nH]c3)c(-c3nnc(F)[nH]3)n(C)c2c(F)c1Cl` [Example 58, 6-chloro-7-fluoro-2-(5-fluoro-4H-1,2,4-triazol-3-yl)-5-methoxy-1-methyl-3-(1H-pyrazol-4-yl)-1H-indole]: 30 nM.
`COc1cc2c(-c3cn[nH]c3)c(-c3nnc(N4CCOCC4)[nH]3)n(C)c2c(F)c1Cl` [Example 59, 4-(5-(6-chloro-7-fluoro-5-methoxy-1-methyl-3-(1H-pyrazol-4-yl)-1H-indol-2-yl)-4H-1,2,4-triazol-3-yl)morpholine]: the concentration for half-maximal inhibition (IC50) stood at 78 nM.
`COc1cc2c(-c3cn[nH]c3)c(-c3nnc(C(C)=O)[nH]3)n(C)c2c(F)c1Cl` [Example 60, 1-(5-(6-chloro-7-fluoro-5-methoxy-1-methyl-3-(1H-pyrazol-4-yl)-1H-indol-2-yl)-4H-1,2,4-triazol-3-yl)ethan-1-one]: the IC50 was 32 nM.
Regarding `COc1cc2c(-c3cn[nH]c3)c(-c3nnc(N(C)C(C)=O)[nH]3)n(C)c2c(F)c1Cl` [Example 61, N-(5-(6-chloro-7-fluoro-5-methoxy-1-methyl-3-(1H-pyrazol-4-yl)-1H-indol-2-yl)-4H-1,2,4-triazol-3-yl)-N-methylacetamide], the IC50 was 41 nM.
With `COCC(=O)N(C)c1nnc(-c2c(-c3cn[nH]c3)c3cc(OC)c(Cl)c(F)c3n2C)[nH]1` [Example 62, N-(5-(6-chloro-7-fluoro-5-methoxy-1-methyl-3-(1H-pyrazol-4-yl)-1H-indo1-2-yl)-4H-1,2,4-triazol-3-yl)-2-methoxy-N-methylacetamide] the figure was 60 nM.
On to `COc1cc2c(-c3cn[nH]c3)c(-c3nnc(N(C)CCO)[nH]3)n(C)c2c(F)c1Cl` [Example 63, 2-((5-(6-chloro-7-fluoro-5-methoxy-l-methyl-3-(1H-pyrazol-4-yl)-1H-indol-2-yl)-4H-1,2,4-triazol-3-yl)(methyl)amino)ethan-1-ol], for which the IC50 was 54 nM.
The same measure for `COCC(O)c1nnc(-c2c(-c3cn[nH]c3)c3cc(OC)c(Cl)c(F)c3n2C)[nH]1` (stereo not drawn) [Example 64, 1-(5-(6-chloro-7-fluoro-5-methoxy-1-methyl-3-(1H-pyrazol-4-yl)-1H-indol-2-yl)-4H-1,2,4-triazol-3-yl)-2-methoxyethan-1-ol]: 52 nM.
Take `COCC(F)(F)c1nnc(-c2[nH]c3c(F)c(Cl)c(OC)cc3c2-c2cn[nH]c2)[nH]1` [Example 65, 6-chloro-2-(5-(1,1-difluoro-2-methoxyethyl)-4H-1,2,4-triazol-3-yl)-7-fluoro-5-methoxy-3-(1H-pyrazol-4-yl)-1H-indole]: the IC50 turned out to be 31 nM.
As for `COCC(F)(F)c1nnc(-c2c(-c3cn[nH]c3)c3cc(OC)c(Cl)c(F)c3n2C)[nH]1` [Example 66, 6-chloro-2-(5-(1,1-difluoro-2-methoxyethyl)-4H-1,2,4-triazol-3-yl)-7-fluoro-5-methoxy-1-methyl-3-(1H-pyrazol-4-yl)-1H-indole], the IC50 amounted to 30 nM.
With `COc1cc2c(-c3cn[nH]c3)c(-c3nnc(C(C)(F)F)[nH]3)[nH]c2c(F)c1Cl` [Example 67, 6-chloro-2-(5-(1,1-difluoroethyl)-4H-1,2,4-triazol-3-yl)-7-fluoro-5-methoxy-3-(1H-pyrazol-4-yl)-1H-indole] the figure was 30 nM; with `COc1cc2c(-c3cn[nH]c3)c(-c3nnc(C(C)(F)F)[nH]3)n(C)c2c(F)c1Cl` [Example 68, 6-chloro-2-(5-(1,1-difluoroethyl)-4H-1,2,4-triazol-3-yl)-7-fluoro-5-methoxy-1-methyl-3-(1H-pyrazol-4-yl)-1H-indole], 33 nM.
The same measure for `COc1cc2c(-c3cn[nH]c3)c(-c3nnc(C(F)(F)CO)[nH]3)n(C)c2c(F)c1Cl` [Example 69, 2-(5-(6-chloro-7-fluoro-5-methoxy-1-methyl-3-(1H-pyrazol-4-yl)-1H-indol-2-yl)-4H-1,2,4-triazol-3-yl)-2,2-difluoroethan-1-ol]: 38 nM; for `COCC(F)c1nnc(-c2c(-c3cn[nH]c3)c3cc(OC)c(Cl)c(F)c3n2C)[nH]1` (stereo not drawn) [Example 70, 6-chloro-7-fluoro-2-(5-(1-fluoro-2-methoxyethyl)-4H-1,2,4-triazol-3-yl)-5-methoxy-1-methyl-3-(1H-pyrazol-4-yl)-1H-indole]: 39 nM.
For the molecule `COc1cc2c(-c3cn[nH]c3)c(-c3nnc(C(C)F)[nH]3)[nH]c2c(F)c1Cl` (stereo not drawn) [Example 71, 6-chloro-7-fluoro-2-(5-(1-fluoroethyl)-4H-1,2,4-triazol-3-yl)-5-methoxy-3-(1H-pyrazol-4-yl)-1H-indole], the IC50 was 44 nM.
The same measure for `COc1cc2c(-c3cn[nH]c3)c(-c3nnc(C(C)F)[nH]3)n(C)c2c(F)c1Cl` (stereo not drawn) [Example 72, 6-chloro-7-fluoro-2-(5-(1-fluoroethyl)-4H-1,2,4-triazol-3-yl)-5-methoxy-1-methyl-3-(1H-pyrazol-4-yl)-1H-indole]: 61 nM; for `COCC(F)(F)c1nnc(-c2c(-c3cn[nH]c3)c3cc(OC)c(Cl)c(C#N)c3n2C)[nH]1` [Example 73, 6-chloro-2-(5-(1,1-difluoro-2-methoxyethyl)-4H-1,2,4-triazol-3-yl)-5-methoxy-1-methyl-3-(1H-pyrazol-4-yl)-1H-indole-7-carbonitrile]: 30 nM; for `CCOc1cc2c(-c3cn[nH]c3)c(-c3nnc(C(C)=O)[nH]3)n(C)c2c(F)c1Cl` [Example 74, 1-(5-(6-chloro-5-ethoxy-7-fluoro-1-methyl-3-(1H-pyrazol-4-yl)-1H-indo1-2-yl)-4H-1,2,4-triazol-3-yl)ethan-1-one]: 210 nM.
As to `Oc1cc(-c2c(-c3nnc(C(F)(F)F)[nH]3)[nH]c3c(Cl)c(Cl)ccc23)n[nH]1` [Example 76, 3-(6,7-dichloro-2-(5-(trifluoromethyl)-4H-1,2,4-triazol-3-yl)-1H-indol-3-yl)-1H-pyrazol-5-ol], the IC50 turned out to be 4210 nM.
The same measure for `Oc1cc(-c2c(-c3nnc(C(F)(F)F)[nH]3)[nH]c3c(Cl)c(Cl)ccc23)no1` [Example 77, 3-(6,7-dichloro-2-(5-(trifluoromethyl)-4H-1,2,4-triazol-3-yl)-1H-indol-3-yl)isoxazol-5-ol]: 1850 nM.

Usually IC50 stands for the concentration needed to halve the response being measured.
